Assay: Absorption maximum of aminobutadienes in methanol (or ethanol)
Type: physicochemical
Conditions: in methanol (or ethanol when not soluble in methanol)
Excerpt: The aminobutadiene according to the present invention has the general formula (I) disclosed above. A preferred class of aminobutadienes is that in which R3 represents —COOH, —COOR5, —COR5 or SO2R5 and R4 represents a carboxyl group, —COOR6, —COR6 or —SO2R6, wherein R1, R2, R5 and R6 have the meanings indicated above. Examples of aminobutadienes according to the general formula (I) are for example disclosed in U.S. Pat. No. 4,195,999. Table 1 lists a number of aminobutadienes according to the present invention which can be coupled to an amine rich polymer, including their absorption maxima in methanol (or ethanol when not soluble in methanol).

CCCCC(CC)COC(=O)/C(=C\C=C\N1CCCCC1)C(C)=O (stereo not shown) [2.3]
Absorption maximum: 395 nm

Source: US20090130033A1, “Dendrimer-Aminobuadiene-Based Uv Screens” (priority 2004, published 2009)
